# Test results as given in paper PMC12750394 (ACS Omega, 2025).
# Bridge positions count the residues as written; N and C are the ends. Square brackets hold non-standard residues; d marks the D form. Peptide text beside a SMILES is read from it. * marks the point of attachment. X1 = CC[C@H](C)CCCCC(=O)*; Dab = NCC[C@H](N)C(=O)O
# Columns and labels:
# B. subtilis = assay: microbe, parasite or virus in culture; settings: for average MIC against B. subtilis: microbroth dilution, 4 × 10^6 CFU/mL, 1 h at 37 °C, TSB added, 24 h at 37 °C, growth inhibition read visually, highest DesHDAP2 concentration […], three technical replicates each from four independent biological experiments; for MIC: Bacillus subtilis, read-out: average MIC against B. subtilis
# From the text: The bacteria species and strains used in this study were: Top10 E. coli containing a pET plasmid with ampicillin resistance (Invitrogen Top10), S. marcescens (Carolina Biosciences #155554A), E. aerogenes (ATCC #51697), E. raffinosus (ATCC #49464), S. epidermidis (ATCC #14990) and B. subtilis (ATCC #6501). For radial diffusion, microbroth dilution, and checkerboard assays, bacterial cultures in tryptic soy broth (TSB) were started from individual colonies picked from agar plates and grown overnight (≈16–18 h) in a shaking incubator at 37 °C. Overnight bacterial cultures were diluted into fresh TSB and grown at 37 °C to an optical density (OD600) of 0.5–0.7. Bacteria were pelleted via centrifuge at 1500g at room temperature for 10 min, washed once with cold sterile sodium phosphate buffer (10 mM Na3PO4, 100 mM NaCl, pH 7.4), then pelleted and resuspended again in sodium phosphate buffer.
# Antimicrobial activity was assessed using the microbroth dilution assay. A resuspended bacterial culture prepared as described above was mixed with deionized water to reach a final bacterial concentration of 4 × 10^6 CFU/mL. A twofold dilution series of peptides in deionized water was prepared. 10 μL of the serial dilutions were added to 90 μL of the 4 × 10^6 CFU/mL bacterial solution in a 96-well plate. […] After incubating for 1 h at 37 °C, 50 μL of TSB was added to each testing well. After incubation for 24 h at 37 °C, growth inhibition was determined visually to assess MIC.
# E. coli = assay: microbe, parasite or virus in culture; settings: for average MIC against E. coli: microbroth dilution, 4 × 10^6 CFU/mL, 1 h at 37 °C, TSB added, 24 h at 37 °C, growth inhibition read visually, highest DesHDAP2 concentration […], three technical replicates each from four independent biological experiments
# Description: For radial diffusion, microbroth dilution, and checkerboard assays, bacterial cultures in tryptic soy broth (TSB) were started from individual colonies picked from agar plates and grown overnight (≈16–18 h) in a shaking incubator at 37 °C. Overnight bacterial cultures were diluted into fresh TSB and grown at 37 °C to an optical density (OD600) of 0.5–0.7. Bacteria were pelleted via centrifuge at 1500g at room temperature for 10 min, washed once with cold sterile sodium phosphate buffer (10 mM Na3PO4, 100 mM NaCl, pH 7.4), then pelleted and resuspended again in sodium phosphate buffer.
# Antimicrobial activity was assessed using the microbroth dilution assay. A resuspended bacterial culture prepared as described above was mixed with deionized water to reach a final bacterial concentration of 4 × 10^6 CFU/mL. A twofold dilution series of peptides in deionized water was prepared. 10 μL of the serial dilutions were added to 90 μL of the 4 × 10^6 CFU/mL bacterial solution in a 96-well plate. […] After incubating for 1 h at 37 °C, 50 μL of TSB was added to each testing well.
SMILES,average MIC against B. subtilis (B. subtilis),average MIC against E. coli (E. coli),MIC (B. subtilis),"MIC (E. coli; Escherichia coli, read-out: average MIC against E. coli)"
NC[C@H]1O[C@H](O[C@H]2[C@H](O)[C@@H](O[C@H]3O[C@H](CO)[C@@H](O)[C@H](N)[C@H]3O)[C@H](N)C[C@@H]2N)[C@H](O)[C@@H](O)[C@@H]1O [kanamycin],3.125 µg/mL,50 µg/mL,,
C[C@H]1COc2c(N3CCN(C)CC3)c(F)cc3c(=O)c(C(=O)O)cn1c23 [levofloxacin],,,5 µg/mL,0.2 µg/mL
CC[C@H](C)CCCCC(=O)N[C@@H](CCN)C(=O)N[C@H](C(=O)N[C@@H](CCN)C(=O)N[C@H]1CCNC(=O)[C@H]([C@@H](C)O)NC(=O)[C@H](CCN)NC(=O)[C@H](CCN)NC(=O)[C@H](CC(C)C)NC(=O)[C@@H](Cc2ccccc2)NC(=O)[C@H](CCN)NC1=O)[C@@H](C)O [polymyxin B] (X1-[Dab]T[Dab][Dab][Dab][dF]L[Dab][Dab]T; lactam 4-C (inferred); N-terminus assumed),2000 µg/mL,65 µg/mL,,
CN(C)[C@@H]1C(O)=C(C(N)=O)C(=O)[C@@]2(O)C(O)=C3C(=O)c4c(O)cccc4[C@@](C)(O)[C@H]3C[C@@H]12 [tetracycline],,,15.6 µg/mL,
